Here are results for five molecules from patent US20170165240A1, “NEW STRATEGIES FOR TREATING MELANOMA” (Université Libre de Bruxelles, priority 2014, published 2017).

The subject of test [1] is MM043 melanoma cell line. In words: Cell proliferation, crystal violet assay, MM043. The following applies: for IC10 / CI (combination index): MM043; for IC10: 10% growth reduction; for CI (combination index): PI3K inhibitor at IC10 in combination with vemurafenib.
Test [2] relates to MM074 melanoma cell line. In words: Cell proliferation, crystal violet assay, MM074. The following applies: for IC10: 10% growth reduction.
For test [3], the system named is MM074-R melanoma cell line. The conditions noted are these: 10% growth reduction.
The subject of test [4] is key proteins of MAPK and p53/PI3K/AKT pathways. In words: Western blot analysis, MM074-R cells. The test is classed as cell-based, human. The conditions noted are these: Western blotting, 50 and 75 μM for 24 hours. Here is the method:
(§1) Cells were plated in Petri dishes (3×10^6 cells/dish) in culture medium. […] Then, cells were exposed or not to effectors for 30 minutes or 24 hours. Cells were lysed using a detergent cocktail (M-PER Mammalian Extraction Buffer) supplemented with protease inhibitors (Halt Protease Inhibitor Cocktail) and phosphatase inhibitors (Halt Phosphatase Inhibitor Cocktail) (all from Pierce, Rockford, Ill., USA). Protein concentrations were determined by the BCA Protein Assay (Pierce) using bovine serum albumin as the standard. Equal amounts of extracted proteins (35 μg) were subjected to 10 or 12% SDS-PAGE and electrotransferred onto nitrocellulose membranes using iBlot® Dry Blotting System (Invitrogen, Life Technologies, Gent, Belgium). Immunodetections were performed using antibodies raised against ^V600EBRAF (VE1, 1/1000) (from Spring Bioscience, Pleasanton, Calif., USA), pBRAF (Ser 445) (1/1000), pCRAF (Ser 338) (1/1000), CRAF (1/1000), p110α (C73F8, 1/1000), PTEN (138G6, 1/1000), pAKT (Ser 473) (D9E, 1/500), AKT (40D4, 1/1000), p21 (12D1, 1/1000) and p53 Ser15 (16G8) (all from Cell Signaling Technology, Danvers, Mass., USA), BRAF (F-7, 1/200), pERK (Tyr 204) (E-4, 1/1000), ERK2 (C-14, 1/2000), p53 (DO-1, 1/200) and MDM2 (SMP14, 1/200) (all from Santa Cruz Biotechnology, Santa Cruz, Calif., USA), and MDM4 (8C6, 1/1000), […]-actin (C4, 1/5000) (from Millipore, Temecula, Calif., USA). Peroxidase-labeled anti-rabbit IgG antibody (1/5000) or peroxidase-labeled anti-mouse IgG antibody (1/5000) (both from Amersham Pharmacia Biotech, Roosendaal, The Netherlands) were used as secondary reagents to detect corresponding primary antibodies. […] Immunostaining signals were digitalized with a PC-driven LAS-3000 CCD camera (Fujifilm, Tokyo, Japan), using a software specifically designed for image acquisition (Image Reader, Raytest®, Straubenhardt, Germany). Immunoreactive band intensities were quantified using the software AIDA® Image Analyser 3.45 (Raytest®).
A general note: In western blotting, separated proteins are transferred to a membrane and probed.

For test [5] the test system is unchanged. The experiment in a line: Western blot analysis, MM074 cells. The following applies: MM074, Western blotting. The test is classed as cell-based, human. Here is the method:
as §1

Test [6] has the same test system. The experiment in a line: Western blot analysis, MM043 cells. The test is classed as cell-based, human. The conditions noted are these: MM043, Western blotting. Here is the method: as §1
For the next test, the system named is MM043 xenografts. The experiment in a line: Human melanoma xenografts, MM043. The test is classed as in vivo, mice. Here is the method: (§2) Mice were injected subcutaneously (right and left flank) with 5×10^6 MM074 (vemurafenib sensitive), MM043 (with intrinsic resistance) or MM074-R cells (with acquired resistance) in 200 μl of 50% Matrigel (from Trevigen, Gaithersburg, Md.) in saline. When tumors reached 200 mm^3, mice were randomized into groups of 8 and daily intraperitoneally injected with vehicle, 45 mg/kg vemurafenib, 50 mg/kg PRIMA-1^Met or vemurafenib plus PRIMA-1^Met. […] Tumor volumes were calculated using the formula (L×W×W)/2 (Ji Z et al., 2013, Clin Cancer Res Off J Am Assoc Cancer Res. 19(16):4383-4391), in which L is the length and W is the width as measured with a vernier calliper.
(§3) The sensitive melanoma cells (MM074) xenografts were used as control. After subcutaneous cell injection, tumor growth was monitored to reach volumes of about 200 mm^3.
Background: In xenograft studies the graft and the host belong to different species.

Another test deals with MM074 xenografts. In words: Human melanoma xenografts, MM074. The test is classed as in vivo, mice. Here is the method: as §2, §3
A further test deals with MM133 melanoma cell line. The experiment in a line: Cell proliferation, crystal violet assay, MM133. The test is classed as cell-based. The conditions noted are these: Homo sapiens, V600K, read-out: IC50 (μM) vemurafenib. Here is the method: (§4) Cells were distained under running tap water and subsequently lysed with 0.2% Triton X-100 for 90 minutes (v/v in water).
(§5) The IC50 and IC10 values represent the inhibitory concentrations producing, respectively, 50% and 10% growth reduction and were calculated from dose response curves using GraphPad Prism software (GraphPad Software, La Jolla, Calif., USA).
(§6) CI values between 0.9 and 1.1 indicates an additive effect; values between 0.7 and 0.9, a moderate synergism; values lower than 0.7, a strong synergism; and antagonism is represented by CI values higher than 1.1.

For another test, the system named is MM034 melanoma cell line. In words: Cell proliferation, crystal violet assay, MM034. The test is classed as cell-based. The following applies: Homo sapiens, V600E, read-out: IC50 (μM) vemurafenib. Here is the method: as §4, §5
The subject of test [7] is MM074 melanoma cell line. The experiment in a line: Apoptosis determination (annexin V), MM074. In kind it is cell-based, human.
Another test has as its system MM054 melanoma cell line. The experiment in a line: Cell proliferation, crystal violet assay, MM054. The following applies: Homo sapiens, V600E, read-out: IC50 (μM) vemurafenib. The test is classed as cell-based. Here is the method:
as §4, §5, §6

Another test has as its system MM029 melanoma cell line. The experiment in a line: Cell proliferation, crystal violet assay, MM029. The conditions noted are these: Homo sapiens, V600K, read-out: IC50 (μM) vemurafenib. The test is classed as cell-based. Here is the method:
as §4, §5, §6

The test system of test [8] is ERK and AKT phosphorylation. The experiment in a line: Western blot, ERK and AKT phosphorylation in panel of vemurafenib-resistant lines. In kind it is cell-based, human. Here is the method: Representative Western blots illustrating the evolution of (A) ERK and (B) AKT phosphorylation in melanoma cells exposed to increasing concentrations of vemurafenib (0.1, 1 and 10 μM) for 24 hours. Ratio of phosphorylated protein over total protein were calculated from densitometry evaluation.
Cells were plated in Petri dishes (3×10^6 cells/dish) in culture medium. […] Then, cells were exposed or not to effectors for 30 minutes or 24 hours. Cells were lysed using a detergent cocktail (M-PER Mammalian Extraction Buffer) supplemented with protease inhibitors (Halt Protease Inhibitor Cocktail) and phosphatase inhibitors (Halt Phosphatase Inhibitor Cocktail) (all from Pierce, Rockford, Ill., USA). Protein concentrations were determined by the BCA Protein Assay (Pierce) using bovine serum albumin as the standard. Equal amounts of extracted proteins (35 μg) were subjected to 10 or 12% SDS-PAGE and electrotransferred onto nitrocellulose membranes using iBlot® Dry Blotting System (Invitrogen, Life Technologies, Gent, Belgium). […] Immunostaining signals were digitalized with a PC-driven LAS-3000 CCD camera (Fujifilm, Tokyo, Japan), using a software specifically designed for image acquisition (Image Reader, Raytest®, Straubenhardt, Germany). Immunoreactive band intensities were quantified using the software AIDA® Image Analyser 3.45 (Raytest®).

The subject of a further test is MM070 melanoma cell line. In words: Cell proliferation, crystal violet assay, MM070. The following applies: Homo sapiens, V600E, read-out: IC50 (μM) vemurafenib. In kind it is cell-based. Here is the method:
as §4, §5

For the next test, the system named is MM050 melanoma cell line. The experiment in a line: Cell proliferation, crystal violet assay, MM050. In kind it is cell-based. The following applies: Homo sapiens, V600E, read-out: IC50 (μM) vemurafenib. Here is the method:
as §4, §5

In test [9] the test system is MM074-R melanoma cell line. The experiment in a line: cells. The following applies: Homo sapiens, read-out: IC50 (μM) vemurafenib.
In test [10] the test system is MM043 melanoma cell line. In words: Apoptosis determination (annexin V), MM043. In kind it is cell-based, human.
For the next test, the system named is MM032 melanoma cell line. In words: Cell proliferation, crystal violet assay, MM032. The following applies: Homo sapiens, V600E, read-out: IC50 (μM) vemurafenib. In kind it is cell-based. Here is the method:
as §4, §5, §6

Test [11] deals with panel of V600E/K BRAF melanoma cell lines. The experiment in a line: Cell proliferation and apoptosis in panel of V600E/K BRAF melanoma cell lines. The conditions noted are these: Homo sapiens.
Another test relates to melanoma. The conditions noted are these: ipilimumab only group, 9 of 15 responders; cited from earlier work.
The mark [12] stands for this setting: Homo sapiens, read-out: IC50 (μM) vemurafenib.

“Also recorded” adds a separate entry of the source. Read-outs that look alike come from different tables or passages of the source.

One may read the IC10 as the point of the concentration-response curve where the effect stands at 10%. With `O=c1cc(N2CCOCC2)oc2c(-c3ccccc3)cccc12` [LY294002], the IC10 (with MM043 melanoma cell line [1]; in the test with MM074 melanoma cell line [2] (MM074); in [3]) was 5 µM throughout. Moreover, the “CI (combination index)” value with MM043 melanoma cell line [1] came out at 0.56.
`COCC1(CO)C(=O)C2CCN1CC2` (centres unmarked) [PRIMA-1^Met, 2-hydroxymethyl-2-methoxymethylazabicyclo[2.2.2]octan-3-one]: in test [4], the AKT phosphorylation result is “decrease of p110α expression and AKT phosphorylation”; the “p21 and PTEN levels” value was “upregulation of p21 and PTEN levels”; the “p53 expression and phosphorylation” value was “dose-dependent increase of p53 expression and phosphorylation”; the p110α expression entry was “decrease of p110α expression and AKT phosphorylation”. Further, in [5], the AKT phosphorylation result was “inhibition of p110α expression and AKT phosphorylation”; the PTEN expression entry is “increase in PTEN levels”; the p110α expression result was “inhibition of p110α expression and AKT phosphorylation”. Besides, in [6], the AKT phosphorylation result was “inhibited AKT phosphorylation; also recorded: inhibition of p110α expression and AKT phosphorylation”; the PTEN expression result was “stimulated PTEN expression; also recorded: increase in PTEN levels”; the “p53 expression / p53 pathway” value was “restored p53 expression; also recorded: activation of the p53 pathway”; the p110α expression result is “inhibition of p110α expression and AKT phosphorylation”. Besides, the mean tumor volume with MM043 xenografts (after 20 days of treatment) is recorded as 1080 mm^3. In test [3], this molecule came in with an IC10 of 40 µM.
Broadly, the IC50 is the midpoint of a concentration-inhibition curve. In the test on MM074 xenografts (28 days, 45 mg/kg daily intraperitoneally), `CCCS(=O)(=O)Nc1ccc(F)c(C(=O)c2c[nH]c3ncc(-c4ccc(Cl)cc4)cc23)c1F` [vemurafenib, N-(3-{[5-(4-chlorophenyl)-1H-pyrrolo[2,3-b]pyridin-3-yl]carbonyl}-2,4-difluorophenyl)propane-1-sulfonamide] yielded an average tumor volume of around 190 mm3. Also, the figures for the tumor growth entry in the test on MM074 xenografts (as of day 4 after starting treatment) and in the test with MM043 xenografts (45 mg/kg vemurafenib and/or 50 mg/kg PRIMA-1^Met daily IP) were “inhibited tumor growth” and “did not significantly affected tumor growth”, respectively. Moreover, the IC50 in the test on MM043 melanoma cell line [1] (setting [12]) was 20 µM; in the test on MM133 melanoma cell line, 2 µM; with MM034 melanoma cell line, 0.1 µM; with MM054 melanoma cell line, 40 µM; in the test on MM029 melanoma cell line, 30 µM; in the test with MM070 melanoma cell line it was 0.05 µM. In addition, the IC50 with MM050 melanoma cell line is 0.1 µM; in test [9], 20 µM; in the test with MM074 melanoma cell line [2] (setting [12]) it was 0.1 µM; in the test with MM032 melanoma cell line, 2 µM; in test [11] (read-out: IC50, cell lines found to be resistant), above 10 µM; in test [11] (read-out: IC50, cell lines found to be sensitive) it was at most 2 µM. The “apoptosis (annexin V-positive cells)” value in the test with MM074 melanoma cell line [7] (MM074, 2 days) was “induces apoptosis”; in the test with MM043 melanoma cell line [10] (MM043, 2 days), “no apoptosis is detected”. Further, the AKT phosphorylation result is listed as “strongly inhibited” in test [5] and “neither AKT phosphorylation nor PTEN expression were affected” in test [6]. The values for the PTEN expression result in test [5] and in test [6] were “concentration-dependent increase of PTEN expression” and “neither AKT phosphorylation nor PTEN expression were affected”, respectively. Also, the “ERK phosphorylation (pERK)” value in test [5] (24 hours) and in [6] (24 hours) was “similarly inhibited” each time. Moreover, in test [8] (all resistant lines, 24 hours), the pERK entry is “similarly inhibited in a concentration-dependent manner”. In test [8] (resistant lines MM032, MM043 and MM133, 24 hours), the pAKT entry is on record as “unaffected in three out of five resistant lines”. The mean tumor volume in the test with MM043 xenografts (after 28 days of treatment) is given as around 1130 mm^3.
Regarding `COc1ccc(-c2cc3c(C)nc(N)nc3n([C@H]3CC[C@H](OCCO)CC3)c2=O)cn1` [PF-04691502], the IC10 (in the test on MM043 melanoma cell line [1]; in the test with MM074 melanoma cell line [2] (MM074); in [3]) was 0.1 µM each time. Moreover, the “CI (combination index)” value with MM043 melanoma cell line [1] was 0.64. In addition, the “apoptosis (annexin V-positive cells)” value in the test on MM074 melanoma cell line [7] (MM074, PI3K inhibitor at IC10 in combination with vemurafenib, 2 days) was “increased”; in the test on MM043 melanoma cell line [10] (MM043, PI3K inhibitor at IC10 in combination with vemurafenib, 2 days) it was “significant increase in apoptosis”. In addition, the AKT phosphorylation result in test [5] and in [6] was “inhibited” each time. Besides, the cell proliferation entry in the test on MM074 melanoma cell line [2] (MM074, PI3K inhibitor at IC10 in combination with increasing concentrations of vemurafenib) is given as “not significantly affected”.
Consider “ipilimumab: an antibody raised against CTLA-4 molecule on T-cells”, for which the “responders who maintained an objective response for at least 2 years” value in the test with melanoma is listed as 60%.
